Source: paper PMC2765816 (European journal of pharmacology, 2008)

What was measured:
adenosine A2B receptor = molecular target: T1, adenosine A2B receptor (Homo sapiens, UniProt P29275); conditions: ref Hide et al., 1992; cited from earlier work
T1 sequence (P29275 1-332): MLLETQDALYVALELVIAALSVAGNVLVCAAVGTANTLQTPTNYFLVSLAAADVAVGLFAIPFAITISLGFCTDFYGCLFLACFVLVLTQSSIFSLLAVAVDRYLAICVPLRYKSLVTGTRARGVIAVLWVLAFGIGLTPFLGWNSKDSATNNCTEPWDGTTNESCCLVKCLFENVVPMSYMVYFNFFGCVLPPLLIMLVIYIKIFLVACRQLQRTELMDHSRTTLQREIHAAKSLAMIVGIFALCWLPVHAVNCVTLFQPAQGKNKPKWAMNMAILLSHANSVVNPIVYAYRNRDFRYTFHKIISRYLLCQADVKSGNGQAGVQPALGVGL

[1] = molecular target: adenosine A2A-CFP receptor (Homo sapiens, UniProt P29274); conditions: 0.45 M; agonist 2 μM NECA
adenosine A2A-CFP receptor, sequence (P29274 1-363): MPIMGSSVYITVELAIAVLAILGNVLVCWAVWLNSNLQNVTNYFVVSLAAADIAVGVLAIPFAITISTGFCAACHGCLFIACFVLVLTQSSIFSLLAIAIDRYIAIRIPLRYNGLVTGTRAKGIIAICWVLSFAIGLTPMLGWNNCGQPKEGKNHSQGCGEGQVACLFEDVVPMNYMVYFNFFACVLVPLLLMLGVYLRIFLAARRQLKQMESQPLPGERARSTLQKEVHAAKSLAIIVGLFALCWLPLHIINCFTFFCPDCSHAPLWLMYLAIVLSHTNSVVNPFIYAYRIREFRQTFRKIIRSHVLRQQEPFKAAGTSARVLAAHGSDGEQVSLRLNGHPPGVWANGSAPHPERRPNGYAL

CCNC(=O)[C@H]1O[C@@H](n2cnc3c(N)nc(NCCc4ccc(CCC(=O)NCCN)cc4)nc32)[C@H](O)[C@@H]1O [APEC, 2-[4-(2-aminoethylaminocarbonylethyl)phenylethylamino]-5′-N-ethylcarboxamidoadenosine]
activity at the adenosine A2B receptor (adenosine A2B receptor): inactive

OC[C@H]1O[C@@](CO)(O[C@H]2O[C@H](CO)[C@@H](O)[C@H](O)[C@H]2O)[C@@H](O)[C@@H]1O [hyperosmolar sucrose, sucrose]
effect on agonist-induced internalization of A2A-CFP [1]: prevented agonist-induced internalization
